16 compounds from ChEMBL document CHEMBL4177727, “Synthesis and biological evaluation of 1-amino isochromans from 2-bromoethyl benzaldehyde and amines in acid medium” (2018) can be followed below.

What all share (format): functional
Common to all, as to settings: read-out: IZ

The subject of test [1] is Pseudomonas aeruginosa. The test can be described thus: Antibacterial activity against Pseudomonas aeruginosa MTCC 424 at 1 ug/ml under overnight incubation condition by paper disc method.
Test [2] has as its system Staphylococcus aureus. The test can be described thus: Antibacterial activity against Staphylococcus aureus MTCC 96 at 1 ug/ml under overnight incubation condition by paper disc method.
In test [3] the test system is Escherichia coli. The test can be described thus: Antibacterial activity against Escherichia coli MTCC 443 at 1 ug/ml under overnight incubation condition by paper disc method.
Test [4] deals with Bacillus subtilis. The test can be described thus: Antibacterial activity against Bacillus subtilis MTCC 441 at 1 ug/ml under overnight incubation condition by paper disc method.

On to `Cc1cc(Br)cnc1NCCc1ccccc1C=O`, for which the zone of inhibition at 1 µg/mL in test [1] came to 5 mm; in test [2], 4 mm; in test [3] it was 3.5 mm; in test [4] it was 3 mm.

`c1ccc2c(c1)CCOC2Nc1nc2ccccc2s1` (stereo not given): the zone of inhibition at 1 µg/mL in test [1] was found to be 3 mm; in test [2] it was 3 mm; in test [3], 2.5 mm; in test [4], 2.5 mm.

Regarding `Ic1ccc(NC2OCCc3ccccc32)nc1` (stereo not given), the zone of inhibition at 1 µg/mL in test [1] was determined as 4.5 mm; in test [2] it was 3 mm; in test [3], 3.5 mm; in test [4], 6 mm.

For the compound `Fc1ccc2nc(NC3OCCc4ccccc43)sc2c1` (stereo not given), the zone of inhibition at 1 µg/mL in test [1] was found to be 3 mm; in test [2] it was 2.5 mm; in test [3], 4 mm; in test [4] it was 4.5 mm.

For `FC(F)(F)c1ccc2nc(NC3OCCc4ccccc43)sc2c1` (stereo not given), the zone of inhibition at 1 µg/mL in test [1], in test [2], in test [3] and in test [4] was 2.5 mm in each case.

For the compound `O=[N+]([O-])c1ccc(NC2OCCc3ccccc32)cc1` (stereo not given), the zone of inhibition at 1 µg/mL in test [1] is 4 mm; in test [2] it was 3 mm; in test [3], 4.5 mm; in test [4], 5 mm.

`Brc1ccc2nc(NC3OCCc4ccccc43)sc2c1` (stereo not given): the zone of inhibition at 1 µg/mL stood at 5 mm in test [1], 5 mm in test [2], 2.5 mm in test [3] and 2.5 mm in test [4].

Consider `CCOc1ccc2nc(NC3OCCc4ccccc43)sc2c1` (stereo not given), for which the zone of inhibition at 1 µg/mL in test [1] was found to be 5 mm; in test [2] it was 6 mm; in test [3], 6.5 mm; in test [4], 7.5 mm.

On to `Fc1nc(NC2OCCc3ccccc32)sc1F` (stereo not given), for which the zone of inhibition at 1 µg/mL in test [1] amounted to 4 mm; in test [2] it was 3 mm; in test [3] it was 3 mm; in test [4], 3 mm.

As to `Fc1ccc(-c2cnc(NC3OCCc4ccccc43)s2)cc1` (stereo not given), the zone of inhibition at 1 µg/mL came to 5 mm in test [1], 3 mm in test [2], 6 mm in test [3] and 2.5 mm in test [4].

As for `Cc1cccc(NC2OCCc3ccccc32)n1` (stereo not given), the zone of inhibition at 1 µg/mL is 6 mm in test [1], 4.5 mm in test [2], 3 mm in test [3] and 4 mm in test [4].

Take `Cc1nc(NC2OCCc3ccccc32)sc1-c1ccccc1` (stereo not given): the zone of inhibition at 1 µg/mL in test [1] came to 3 mm; in test [2], 2.5 mm; in test [3] it was 2.5 mm; in test [4] it was 2.5 mm.

`COc1cccc2sc(NC3OCCc4ccccc43)nc12` (stereo not given): the zone of inhibition at 1 µg/mL came to 4 mm in test [1], 2.5 mm in test [2], 3 mm in test [3] and 3 mm in test [4].

On to `Cc1ccc2nc(NC3OCCc4ccccc43)sc2c1` (stereo not given), for which the zone of inhibition at 1 µg/mL in test [1], in test [2], in test [3] and in test [4] was 2.5 mm each time.

Regarding `CCn1cc(C(=O)O)c(=O)c2cc(F)c(N3CCNCC3)cc21` [NORFLOXACIN], the zone of inhibition at 1 µg/mL amounted to 9.5 mm in test [1] and 7 mm in test [2].

Take `CC1COc2c(N3CCN(C)CC3)c(F)cc3c(=O)c(C(=O)O)cn1c23` (stereo not given) [OFLOXACIN]: the zone of inhibition at 1 µg/mL was 11 mm in test [3] and 10 mm in test [4].
